From patent US20260165956A1, “IN VIVO TARGETING OF THERAPEUTIC MOLECULES TO THE RETINA VIA THE OPTICAL SYSTEM OF THE EYE” (SEMMELWEIS EGYETEM, priority 2022, published 2026)
“And” between values parts separate entries of the source, which are not always exact repeats. Equal values may be shown once. “Also recorded” adds a separate entry of the source. Read-outs that look alike come from different tables or passages of the source.

Assays:
neovascular AMD [1] = conditions: oral, phase II, trial prematurely stopped; cited from earlier work
neovascular AMD [2] = conditions: oral, phase I, patients; cited from earlier work
[3] = system: human retinal microvascular endothelial cells (HRMEC); experiment: tubulogenesis (in vitro angiogenesis) assay, number of meshes; type: cell-based; conditions: for IC50 / Dark/Light: HRMEC tubulogenesis; for Dark/Light: ratio of IC50 dark to IC50 light
From the text: These cells preserve their endothelial nature, and when cultured on an appropriate extracellular matrix, they spontaneously form a network that corresponds to a network of capillaries. Images of such networks taken with a microscope can be quantified, and several parameters (such as the number of segments, number of closed loops, number of junction points) of the network can be quantified and used as a parameter describing the angiogenesis in vitro [Staton et al., 2009].
The inventors have applied their proprietary azidated inhibitors described in the present patent in an ascending series of concentrations. For all the said azidated inhibitors, the in vitro angiogenesis experiments were carried out both in complete darkness and in defined illumination conditions. The number of closed loops (number of meshes) was identified using an image recognition algorithm, and an IC50 curve was fitted onto the number of meshes plotted against substance concentration. […] These experiments thus provided further proof, that light increases the inhibitory potential of the novel azidated compounds described in the present patent.
In vitro angiogenesis (hereinafter referred to as “tubulogenesis”) mimicks several features of angiogenetic processes observed in vivo in vertebrate animals [Staton et al., 2009] and is based on the VEGF-dependent self-organizing capacity of endothelial cells via which tube-like structures emerge that share many properties with in vivo observed blood vessels. Therefore, the inhibitory potential of the newly synthetized molecules of the present invention was also assessed in tubulogenesis assay using human retinal microvascular endothelial cells (HRMEC) derived from post mortem human donors. When seeded onto a collagen and laminin containing matrix, HRMEC spontaneously form a two-dimensional blood-vessel-like network displaying several quantifiable features that can be used to measure angiogenic potential [Staton et al., 2009]. The newly synthetized, PMO-containing VEGFR inhibitors were added to the culture medium in increasing concentrations to test whether they can inhibit the spontaneous formation of the network from HRMEC. The increasing concentrations allowed the inventors to calculate the IC50 values for each inhibitor molecule. The results of these experiments (table 2.) have shown that the new, PMO-containing azidated inhibitors were capable of inhibiting the tubulogenesis. Furthermore, in the presence of light, the inhibition was stronger than in the dark, providing evidence for the photoactivation and the concomitant covalent binding of the azidated inhibitors to their target receptors.
To test the inhibitory effect of the compounds with light and without light on tubulogenesis [Staton et al., 2009], we have used human retinal microvascular endothelial cells (HRMEC) from Cell Systems (Kirkland, WA 98033, cat. N^o: ACBRI 181). VEGF165 (Invitrogen) was only used as a positive control in these experiments, otherwise tubulogenesis relied on endogenous VEGF produced by the culture.
Assays were performed in a 96-well cell culture plate (Biologix). The basement membrane matrix Geltrex (Invitrogen) was thawed on ice overnight before use. 50 μl Geltrex was added to each well with a chilled pipette, then the plate was centrifuged at 2000 rpm for 10 min at 4° C. Subsequently the matrix was let solidify in a humidified incubator at 37° C. for at least 30 minutes. Before seeding, HRMEC cells were treated with compounds (0.1 nM-10 μM) in EBM-2 medium (Lonza) in the dark. After 5 minutes, 100 μl of suspension of treated cells was seeded into each Geltrex-coated well of the plate at a density of 10^3 cells/well and then exposed to light treatment (cold white LED light) for 10 min at 37° C. and 5% CO2 or kept in the dark (control plate) in the incubator during light treatment. Subsequently both the irradiated and the control plates were left in the incubator for 12 hours so that the tubulogenesis can proceed. […]

VEGFR2 = molecular target: T1, VEGFR2 (Homo sapiens, UniProt P35968); experiment: VEGFR2/NFAT Reporter HEK293 luciferase assay of VEGF signaling; type: cell-based; conditions: VEGFR2-HEK cells; for IC50: 20 ng/ml VEGF165; for Dark/Light: ratio of IC50 dark to IC50 light
T1 construct: host or cells: HEK293 (VEGFR2/NFAT Reporter recombinant cell line)
T1 sequence (P35968 20-1356): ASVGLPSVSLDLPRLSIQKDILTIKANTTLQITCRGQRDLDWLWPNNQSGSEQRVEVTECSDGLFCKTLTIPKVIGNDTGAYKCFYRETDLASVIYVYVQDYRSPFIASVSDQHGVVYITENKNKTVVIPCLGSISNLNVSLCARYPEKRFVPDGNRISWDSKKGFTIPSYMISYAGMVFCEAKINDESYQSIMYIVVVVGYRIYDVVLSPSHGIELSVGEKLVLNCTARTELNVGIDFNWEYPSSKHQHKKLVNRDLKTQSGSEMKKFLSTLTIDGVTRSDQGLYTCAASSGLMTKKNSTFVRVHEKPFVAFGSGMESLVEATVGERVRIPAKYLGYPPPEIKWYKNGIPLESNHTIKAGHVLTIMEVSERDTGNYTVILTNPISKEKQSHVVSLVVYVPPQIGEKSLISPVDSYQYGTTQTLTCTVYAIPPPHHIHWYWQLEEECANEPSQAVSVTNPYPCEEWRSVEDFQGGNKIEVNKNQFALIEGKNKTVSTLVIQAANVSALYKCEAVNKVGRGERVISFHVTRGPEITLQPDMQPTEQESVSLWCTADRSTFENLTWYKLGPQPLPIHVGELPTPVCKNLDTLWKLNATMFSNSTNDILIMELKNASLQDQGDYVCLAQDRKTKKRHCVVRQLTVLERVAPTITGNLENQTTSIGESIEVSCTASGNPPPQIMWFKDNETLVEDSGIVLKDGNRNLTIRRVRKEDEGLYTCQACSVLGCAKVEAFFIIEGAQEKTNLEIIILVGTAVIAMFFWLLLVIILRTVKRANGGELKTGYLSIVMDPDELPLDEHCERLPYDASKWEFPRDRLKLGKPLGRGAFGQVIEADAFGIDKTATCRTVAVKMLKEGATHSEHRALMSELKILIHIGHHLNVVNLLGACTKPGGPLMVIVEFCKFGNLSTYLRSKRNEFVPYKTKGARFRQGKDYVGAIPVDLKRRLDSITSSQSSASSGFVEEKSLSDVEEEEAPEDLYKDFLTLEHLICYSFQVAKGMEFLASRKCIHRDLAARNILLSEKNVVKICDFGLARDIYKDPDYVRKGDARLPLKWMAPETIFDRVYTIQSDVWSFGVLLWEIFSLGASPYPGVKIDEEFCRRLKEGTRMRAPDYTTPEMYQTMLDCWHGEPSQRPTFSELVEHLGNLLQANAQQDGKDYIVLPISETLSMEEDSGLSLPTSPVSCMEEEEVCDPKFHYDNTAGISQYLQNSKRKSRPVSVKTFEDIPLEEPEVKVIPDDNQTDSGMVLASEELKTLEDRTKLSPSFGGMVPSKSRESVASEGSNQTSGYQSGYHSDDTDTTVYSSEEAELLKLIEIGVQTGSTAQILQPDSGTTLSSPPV
Experimental: We have cultured the cells and conducted the measurements according to the manufacturer's instructions.
On the day preceding the measurement, 40 000 recombinant HEK cells were seeded into each well of a 96 well plate in a way that the experiments could be conducted in triplicates. […] For the conditions requiring irradiation, the plate was placed under a cold white LED light source within the incubator (37° C., 5% CO2) for the first 10 minutes of the 1-hour-long incubation with the inhibitors to imitate day-light, while the other plate was kept in the dark (also at 37° C., 5% CO2). Following the pre-incubation with inhibitors we treated the cells for 4 hours with VEGF without removing the inhibitors. For this purpose we used 20 ng/ml of commercially available human VEGF165 (Sf9 derived, from BPS BioScience Inc., Cat. No.: 91001-1) added directly into the cell-culture medium.
The IC50 values were calculated using the GraphPad Prism software.

[4] = cold white LED light for the first 10 min of 1 h pre-incubation, read-out: IC50 Light
[5] = kept in the dark, read-out: IC50 Dark
[6] = Homo sapiens, HRMEC, 10 min, cold white LED light 10 min, no Ko-143, read-out: IC50 Light
[7] = Homo sapiens, HRMEC, dark, no Ko-143, read-out: IC50 Dark

SMILES: Cc1[nH]c(/C=C2\C(=O)Nc3ccc(F)cc32)c(C)c1C(=O)N[C@H]1CCN(C(=O)N(C)C)C1 [vorolanib]
- adverse effects (neovascular AMD [1]): hepatobiliary and gastrointestinal adverse effects; also recorded: intolerable levels of side effects
- efficacy against neovascular AMD (neovascular AMD [2]): effective

SMILES: COc1ccc2c3c([nH]c2c1)[C@H](CC(C)C)N1C(=O)[C@H](CCC(=O)OC(C)(C)C)NC(=O)[C@@H]1C3 [Ko-143, reference compound]
- effect on tubulogenesis ([3]; result in words): no effect

SMILES: CCN(CC)CCNC(=O)c1c(C)[nH]c(/C=C2\C(=O)Nc3cc(F)c(N=[N+]=[N-])cc32)c1C [5-defluoro-5-azido-6-fluoro-sunitinib]
- IC50 (VEGFR2; [4]): 8.86 nM
- IC50 (VEGFR2; [5]): 69 nM
- Dark/Light (VEGFR2): 7.79

SMILES: CCN(CC)CCNC(=O)c1c(C)[nH]c(/C=C2\C(=O)Nc3ccc(N=[N+]=[N-])cc32)c1C [5-defluoro-5-azido-sunitinib (1), 5-defluoro-5-azido-sunitinib]
- IC50 [3, 6]: 951 nM
- IC50 [3, 7]: 3540 nM
- Dark/Light ([3]; no Ko-143): 3.72
- IC50 (VEGFR2; [4]): 36.8 nM
- IC50 (VEGFR2; [5]): 263 nM
- Dark/Light (VEGFR2): 7.136

SMILES: CCN(CC)CCNC(=O)c1c(C)[nH]c(/C=C2\C(=O)Nc3cc(Cl)c(N=[N+]=[N-])cc32)c1C [5-defluoro-5-azido-6-chloro-sunitinib]
- IC50 [3, 6]: 168 nM
- IC50 [3, 7]: 655 nM
- Dark/Light ([3]; no Ko-143): 3.48
- IC50 (VEGFR2; [4]): 2.23 nM
- IC50 (VEGFR2; [5]): 40.4 nM
- Dark/Light (VEGFR2): 18.12

SMILES: CCN(CC)CCNC(=O)c1c(C)[nH]c(/C=C2\C(=O)Nc3cc(N=[N+]=[N-])ccc32)c1C [5-defluoro-6-azido-sunitinib (2), 5-defluoro-6-azido-sunitinib]
- IC50 [3, 6]: 432 nM
- IC50 [3, 7]: 1090 nM
- Dark/Light ([3]; no Ko-143): 2.52
- IC50 (VEGFR2; [4]): 9.3 nM
- IC50 (VEGFR2; [5]): 93.7 nM
- Dark/Light (VEGFR2): 10.074

SMILES: Cc1[nH]c(/C=C2\C(=O)Nc3cc(Cl)c(N=[N+]=[N-])cc32)c(C)c1C(=O)N[C@H]1CCN(C(=O)N(C)C)C1 [5-defluoro-5-azido-6-chloro-vorolanib]
- IC50 ([3]; cold white LED light 10 min, 500 nM of Ko-143 in the medium, read-out: IC50 Light): 173 nM
- IC50 ([3]; Homo sapiens, HRMEC, 10 min, cold white LED light 10 min, 500 nM of Ko-143 in the medium, read-out: IC50 Light): 135 nM
- Dark/Light ([3]; 500 nM of Ko-143): 3.97
- IC50 (VEGFR2; [4]): 0.921 nM
- IC50 (VEGFR2; [5]): 57.8 nM
- Dark/Light (VEGFR2): 62.80

SMILES: CCN(CC)CCNC(=O)c1c(C)[nH]c(/C=C2\C(=O)Nc3cc(Br)c(N=[N+]=[N-])cc32)c1C [5-defluoro-5-azido-6-bromo-sunitinib (6), 5-defluoro-5-azido-6-bromo-sunitinib]
- IC50 (VEGFR2; [4]): 3.5 nM
- IC50 (VEGFR2; [5]): 60.4 nM and 60.7 nM
- Dark/Light (VEGFR2): 17.25

SMILES: CCN(CC)CCNC(=O)c1c(C)[nH]c(/C=C2\C(=O)Nc3cc(N=[N+]=[N-])c(F)cc32)c1C [6-azido-sunitinib (3), 6-azido-sunitinib]
- IC50 [3, 6]: 87 nM
- IC50 [3, 7]: 228 nM
- Dark/Light ([3]; no Ko-143): 2.62
- IC50 (VEGFR2; [4]): 11.7 nM
- IC50 (VEGFR2; [5]): 53.2 nM
- Dark/Light (VEGFR2): 4.57

SMILES: Cc1[nH]c(/C=C2\C(=O)Nc3cc(N=[N+]=[N-])ccc32)c(C)c1C(=O)N[C@H]1CCN(C(=O)N(C)C)C1 [5-defluoro-6-azido-vorolanib (7), 5-defluoro-6-azido-vorolanib]
- IC50 (VEGFR2; [4]): 10.1 nM
- IC50 (VEGFR2; [5]): 53.4 nM
- Dark/Light (VEGFR2): 5.29
